From article PMC8892858 (ACS Omega, 2022)
“And” between values parts separate entries of the source, which are not always exact repeats. Identical values can stand only once. “Also recorded” adds a separate entry of the source. Counter-ions that a name gives are not always drawn.

Test system: rRVFVΔNSs::Katushka
Assay: microbe, parasite or virus in culture
Format: cell-based, Rift Valley fever virus
Settings: not given

| Molecule | Selectivity index | EC50 value |
| --- | --- | --- |
| CN(C)c1cccc(-c2ccc(OCCCCN3CCNCC3)cc2)c1 [Compound 13h, N,N-Dimethyl-4′-(4-(piperazin-1-yl)butoxy)biphenyl-3-amine·3HCl] | 5.3 |  |
| c1ccc(-c2ccc(OCCN3CCNCC3)cc2)cc1 [Compound 5f, 1-(2-(Biphenyl-4-yloxy)ethyl)piperazine] | 4.2 |  |
| NCCCNCCOc1ccc(-c2ccccc2)cc1 [Compound 1, N1-(2-(Biphenyl-4-yloxy)ethyl)propane-1,3-diamine·2HCl] | 7.1 |  |
| c1cc(C23CC4CC(CC(C4)C2)C3)ccc1OCCCCN1CCNCC1 [Compound 13m, 1-(4-(4-Adamantylphenoxy)butyl)piperazine·2HCl] | 2.4 |  |
| CN1CCN(CCCCOc2ccc(-c3ccccc3)cc2)CC1 [Compound 8c, 1-(4-(Biphenyl-4-yloxy)butyl)-4-methylpiperazine] | 2.2 |  |
| c1ccc(Cc2ccccc2OCCCCN2CCNCC2)cc1 [Compound 13e, 1-(4-(2-Benzylphenoxy)butyl)piperazine·2HCl] | 4.7 |  |
| c1ccc(OCCCCN2CCNCC2)cc1 [Compound 13f, 1-(4-Phenoxybutyl)piperazine·2HCl] |  | completely removed the antiviral activity; also recorded: ND (no inhibition) |
| c1ccc(-c2ccc(OCCCCN3CCNCC3)cc2)cc1 [Compound 9a, 1-(4-(Biphenyl-4-yloxy)butyl)piperazine] | 5.8 |  |
| NCCCCCCOc1ccc(-c2ccccc2)cc1 [Compound 5a, 6-(Biphenyl-4-yloxy)hexan-1-amine·HCl] | 3.6 |  |
| c1ccc(-c2cccc(OCCCCN3CCNCC3)c2)cc1 [Compound 13a, 1-(4-(Biphenyl-3-yloxy)butyl)piperazine·2HCl] | 10 and 10.4 |  |
| c1ccc(-c2ccc(OCCCN3CCNCC3)cc2)cc1 [Compound 5g, 1-(3-(Biphenyl-4-yloxy)propyl)piperazine] | < 2 |  |
| NCCOc1ccc(-c2ccccc2)cc1 [Compound 5b, 2-(Biphenyl-4-yloxy)ethanamine·HCl] | 8.1 |  |
| 1-(4-(Benzhydryloxy)butyl)-4-phenylpiperazine [Compound 16] |  | reduced the antiviral activity significantly |
| c1ccc(-c2ccc(OCCCCN3CCN(c4ccccc4)CC3)cc2)cc1 [Compound 11, 1-(4-(Biphenyl-4-yloxy)butyl)-4-phenylpiperazine] |  | the antiviral activity was completely eliminated; also recorded: ND (no inhibition) |
| c1ccc(Cc2ccc(OCCCCN3CCNCC3)cc2)cc1 [Compound 13c, 1-(4-(4-Benzylphenoxy)butyl)piperazine·2HCl] | 9.1 |  |
| c1ccc(Cc2cccc(OCCCCN3CCNCC3)c2)cc1 [Compound 13d, 1-(4-(3-Benzylphenoxy)butyl)piperazine·2HCl] | 5.8 |  |
| c1cc(C2CCCCC2)ccc1OCCCCN1CCNCC1 [Compound 13l, 1-(4-(4-Cyclohexylphenoxy)butyl)piperazine·2HCl] | 5.6 |  |
| CC(C)c1ccc(-c2ccc(OCCCCN3CCNCC3)cc2)cc1 [Compound 13i, 1-(4-(4′-Isopropylbiphenyl-4-yloxy)butyl)piperazine·2HCl] | 5.1 |  |
| CC(C)c1cccc(-c2ccc(OCCCCN3CCNCC3)cc2)c1 [Compound 13j, 1-(4-(3′-Isopropylbiphenyl-4-yloxy)butyl)piperazine·2HCl] | 5.4 |  |
| c1ccc(-c2ccccc2OCCCCN2CCNCC2)cc1 [Compound 13b, 1-(4-(Biphenyl-2-yloxy)butyl)piperazine·2HCl] | > 4.7 |  |
| NCCCOc1ccc(-c2ccccc2)cc1 [Compound 5c, 3-(Biphenyl-4-yloxy)propan-1-amine] | 3.8 |  |

Same assay, conditions: Rift Valley fever virus, A549, 16 h, read-out: EC50 value

| Molecule | EC50 |
| --- | --- |
| c1ccc(-c2ccc(OCCCCCN3CCNCC3)cc2)cc1 [Compound 9b, 1-(5-(Biphenyl-4-yloxy)pentyl)piperazine] | 11.7 ± 1.8 µM |
| CN(C)c1cccc(-c2ccc(OCCCCN3CCNCC3)cc2)c1 [Compound 13h, N,N-Dimethyl-4′-(4-(piperazin-1-yl)butoxy)biphenyl-3-amine·3HCl] | 15.5 ± 4.7 µM |
| c1ccc(-c2ccc(OCCN3CCNCC3)cc2)cc1 [Compound 5f, 1-(2-(Biphenyl-4-yloxy)ethyl)piperazine] | 38.7 ± 11.6 µM |
| NCCCNCCOc1ccc(-c2ccccc2)cc1 [Compound 1, N1-(2-(Biphenyl-4-yloxy)ethyl)propane-1,3-diamine·2HCl] | 12 ± 1.3 µM |
| c1cc(C23CC4CC(CC(C4)C2)C3)ccc1OCCCCN1CCNCC1 [Compound 13m, 1-(4-(4-Adamantylphenoxy)butyl)piperazine·2HCl] | 5.4 ± 1.2 µM |
| CN1CCN(CCCCOc2ccc(-c3ccccc3)cc2)CC1 [Compound 8c, 1-(4-(Biphenyl-4-yloxy)butyl)-4-methylpiperazine] | 61.7 ± 17.6 µM |
| CC(=O)c1cccc(-c2ccc(OCCCCN3CCNCC3)cc2)c1 [Compound 13g, 1-(4′-(4-(Piperazin-1-yl)butoxy)biphenyl-3-yl)ethanone·2HCl] | 41.9 ± 27.3 µM |
| c1ccc(-c2ccc(OCCN3CCOCC3)cc2)cc1 [Compound 4e, 4-(2-(Biphenyl-4-yloxy)ethyl)morpholine] | > 100 µM |
| c1ccc(-c2ccc(OCCN3CCCCC3)cc2)cc1 [Compound 4d, 1-(2-(Biphenyl-4-yloxy)ethyl)piperidine] | > 100 µM |
| c1ccc(Cc2ccccc2OCCCCN2CCNCC2)cc1 [Compound 13e, 1-(4-(2-Benzylphenoxy)butyl)piperazine·2HCl] | 31.2 ± 15.8 µM |
| c1ccc(-c2ccc(OCCCCN3CCNCC3)cc2)cc1 [Compound 9a, 1-(4-(Biphenyl-4-yloxy)butyl)piperazine] | 12.8 ± 0.2 µM |
| NCCCCCCOc1ccc(-c2ccccc2)cc1 [Compound 5a, 6-(Biphenyl-4-yloxy)hexan-1-amine·HCl] | 12.1 ± 2.1 µM |
| c1ccc(-c2cccc(OCCCCN3CCNCC3)c2)cc1 [Compound 13a, 1-(4-(Biphenyl-3-yloxy)butyl)piperazine·2HCl] | 13.8 ± 5.3 µM |
| c1ccc(-c2ccc(OCCCN3CCNCC3)cc2)cc1 [Compound 5g, 1-(3-(Biphenyl-4-yloxy)propyl)piperazine] | > 100 µM |
| NCCOc1ccc(-c2ccccc2)cc1 [Compound 5b, 2-(Biphenyl-4-yloxy)ethanamine·HCl] | 37.3 ± 0.5 µM |
| c1ccc(Cc2ccc(OCCCCN3CCNCC3)cc2)cc1 [Compound 13c, 1-(4-(4-Benzylphenoxy)butyl)piperazine·2HCl] | 15.4 ± 4.7 µM |
| c1ccc(Cc2cccc(OCCCCN3CCNCC3)c2)cc1 [Compound 13d, 1-(4-(3-Benzylphenoxy)butyl)piperazine·2HCl] | 22.9 ± 5.2 µM |
| c1cc(C2CCCCC2)ccc1OCCCCN1CCNCC1 [Compound 13l, 1-(4-(4-Cyclohexylphenoxy)butyl)piperazine·2HCl] | 8.8 ± 0.5 µM |
| CC(C)c1ccc(-c2ccc(OCCCCN3CCNCC3)cc2)cc1 [Compound 13i, 1-(4-(4′-Isopropylbiphenyl-4-yloxy)butyl)piperazine·2HCl] | 4.6 ± 0.3 µM |
| CC(C)c1cccc(-c2ccc(OCCCCN3CCNCC3)cc2)c1 [Compound 13j, 1-(4-(3′-Isopropylbiphenyl-4-yloxy)butyl)piperazine·2HCl] | 4.7 ± 0.7 µM |
| c1ccc(-c2ccccc2OCCCCN2CCNCC2)cc1 [Compound 13b, 1-(4-(Biphenyl-2-yloxy)butyl)piperazine·2HCl] | 63.5 ± 11.1 µM |
| NCCCOc1ccc(-c2ccccc2)cc1 [Compound 5c, 3-(Biphenyl-4-yloxy)propan-1-amine] | 37.8 ± 6.7 µM |

Same assay, conditions: Rift Valley fever virus, A549, 16 h, read-out: EC50 value, inhibition of RVFV infection (dose-response before membrane potential assay)

| Molecule | EC50 |
| --- | --- |
| C=C[C@H]1C[N@@]2CC[C@H]1C[C@@H]2[C@@H](O)c1ccnc2ccc(OC)cc12 [quinidine, reference compound] | 146 µM |

Same assay, conditions: Rift Valley fever virus, A549, 16 h, read-out: IC50, dose-response curves of inhibition of RVFV infection (Figure 5A)

| Molecule | IC50 |
| --- | --- |
| C=C[C@H]1C[N@@]2CC[C@H]1C[C@@H]2[C@@H](O)c1ccnc2ccc(OC)cc12 [quinidine, reference compound] | 164 µM |
| c1ccc(-c2cccc(OCCCCN3CCNCC3)c2)cc1 [Compound 13a, 1-(4-(Biphenyl-3-yloxy)butyl)piperazine·2HCl] | 13.8 µM |

Same assay, conditions: read-out: EC50 value

| Molecule | EC50 |
| --- | --- |
| 1-(4-(Benzhydryloxy)butyl)-4-phenylpiperazine [Compound 16] | > 100 µM |

Test system: rRVFVΔNSs::Katushka
Assay: not given
Format: cell-based, Rift Valley fever virus
Settings: not given

| Molecule | inhibition of RVFV RNA expression (qRT-PCR) |
| --- | --- |
| CN1CCN(CCCCOc2ccc(-c3ccccc3)cc2)CC1 [Compound 8c, 1-(4-(Biphenyl-4-yloxy)butyl)-4-methylpiperazine] | unable to inhibit the viral RNA expressions |
| c1ccc(-c2ccc(OCCCCN3CCN(c4ccccc4)CC3)cc2)cc1 [Compound 11, 1-(4-(Biphenyl-4-yloxy)butyl)-4-phenylpiperazine] | did not show any inhibition |

Test system: rRVFVΔNSs::Katushka
Assay: not given
Format: cell-based, Rift Valley fever virus
Settings: not given
Remark: another data set of the same source

| Molecule | antiviral potency by time of addition |
| --- | --- |
| c1ccc(-c2cccc(OCCCCN3CCNCC3)c2)cc1 [Compound 13a, 1-(4-(Biphenyl-3-yloxy)butyl)piperazine·2HCl] | active at early stages of the viral replication cycle, most likely during or just after virus entry; also recorded: progressively lost its potency when added at late stages of the infection cycle |

Test system: A549 cells
Assay: not given
Format: cell-based, Human
Settings: not given

| Molecule | DiBAC4(3) fluorescence intensity (membrane potential) |
| --- | --- |
| C=C[C@H]1C[N@@]2CC[C@H]1C[C@@H]2[C@@H](O)c1ccnc2ccc(OC)cc12 [quinidine, reference compound] | increased DiBAC4(3) fluorescence intensity (depolarization) |
| c1ccc(-c2cccc(OCCCCN3CCNCC3)c2)cc1 [Compound 13a, 1-(4-(Biphenyl-3-yloxy)butyl)piperazine·2HCl] | increased DiBAC4(3) fluorescence intensity (depolarization) |

Test system: A549 cells
Assay: not given
Settings: not given
Remark: another data set of the same source

| Molecule | CC50 value | CC50 |
| --- | --- | --- |
| CN(C)c1cccc(-c2ccc(OCCCCN3CCNCC3)cc2)c1 [Compound 13h, N,N-Dimethyl-4′-(4-(piperazin-1-yl)butoxy)biphenyl-3-amine·3HCl] | high toxicity |  |
| c1cc(C23CC4CC(CC(C4)C2)C3)ccc1OCCCCN1CCNCC1 [Compound 13m, 1-(4-(4-Adamantylphenoxy)butyl)piperazine·2HCl] | Extreme toxicity |  |
| 1-(4-(Benzhydryloxy)butyl)-4-phenylpiperazine [Compound 16] |  | > 300 µM |

Test system: not listed separately
Assay: in vitro
Settings: human

| Molecule | CC50 |
| --- | --- |
| c1ccc(-c2ccc(OCCCCCN3CCNCC3)cc2)cc1 [Compound 9b, 1-(5-(Biphenyl-4-yloxy)pentyl)piperazine] | 44.2 ± 16.6 µM |
| CN(C)c1cccc(-c2ccc(OCCCCN3CCNCC3)cc2)c1 [Compound 13h, N,N-Dimethyl-4′-(4-(piperazin-1-yl)butoxy)biphenyl-3-amine·3HCl] | 82.5 ± 15.2 µM |
| c1ccc(-c2ccc(OCCN3CCNCC3)cc2)cc1 [Compound 5f, 1-(2-(Biphenyl-4-yloxy)ethyl)piperazine] | 165 ± 22.9 µM |
| NCCCNCCOc1ccc(-c2ccccc2)cc1 [Compound 1, N1-(2-(Biphenyl-4-yloxy)ethyl)propane-1,3-diamine·2HCl] | 86 ± 9 µM |
| c1cc(C23CC4CC(CC(C4)C2)C3)ccc1OCCCCN1CCNCC1 [Compound 13m, 1-(4-(4-Adamantylphenoxy)butyl)piperazine·2HCl] | 13.1 µM |
| CN1CCN(CCCCOc2ccc(-c3ccccc3)cc2)CC1 [Compound 8c, 1-(4-(Biphenyl-4-yloxy)butyl)-4-methylpiperazine] | 136.2 ± 1.2 µM |
| CC(=O)c1cccc(-c2ccc(OCCCCN3CCNCC3)cc2)c1 [Compound 13g, 1-(4′-(4-(Piperazin-1-yl)butoxy)biphenyl-3-yl)ethanone·2HCl] | > 300 µM |
| c1ccc(-c2ccc(OCCN3CCOCC3)cc2)cc1 [Compound 4e, 4-(2-(Biphenyl-4-yloxy)ethyl)morpholine] | > 300 µM |
| c1ccc(-c2ccc(OCCN3CCCCC3)cc2)cc1 [Compound 4d, 1-(2-(Biphenyl-4-yloxy)ethyl)piperidine] | > 300 µM |
| c1ccc(Cc2ccccc2OCCCCN2CCNCC2)cc1 [Compound 13e, 1-(4-(2-Benzylphenoxy)butyl)piperazine·2HCl] | 148.4 ± 1.3 µM |
| c1ccc(OCCCCN2CCNCC2)cc1 [Compound 13f, 1-(4-Phenoxybutyl)piperazine·2HCl] | > 300 µM |
| c1ccc(-c2ccc(OCCCCN3CCNCC3)cc2)cc1 [Compound 9a, 1-(4-(Biphenyl-4-yloxy)butyl)piperazine] | 74.8 ± 1.2 µM |
| NCCCCCCOc1ccc(-c2ccccc2)cc1 [Compound 5a, 6-(Biphenyl-4-yloxy)hexan-1-amine·HCl] | 44.6 ± 0.3 µM |
| c1ccc(-c2cccc(OCCCCN3CCNCC3)c2)cc1 [Compound 13a, 1-(4-(Biphenyl-3-yloxy)butyl)piperazine·2HCl] | 145 ± 5.5 µM |
| c1ccc(-c2ccc(OCCCN3CCNCC3)cc2)cc1 [Compound 5g, 1-(3-(Biphenyl-4-yloxy)propyl)piperazine] | 203 ± 53.5 µM |
| NCCOc1ccc(-c2ccccc2)cc1 [Compound 5b, 2-(Biphenyl-4-yloxy)ethanamine·HCl] | > 300 µM |
| c1ccc(-c2ccc(OCCCCN3CCN(c4ccccc4)CC3)cc2)cc1 [Compound 11, 1-(4-(Biphenyl-4-yloxy)butyl)-4-phenylpiperazine] | > 300 µM |
| c1ccc(Cc2ccc(OCCCCN3CCNCC3)cc2)cc1 [Compound 13c, 1-(4-(4-Benzylphenoxy)butyl)piperazine·2HCl] | 140.3 ± 0.8 µM |
| c1ccc(Cc2cccc(OCCCCN3CCNCC3)c2)cc1 [Compound 13d, 1-(4-(3-Benzylphenoxy)butyl)piperazine·2HCl] | 134.2 ± 0.9 µM |
| c1cc(C2CCCCC2)ccc1OCCCCN1CCNCC1 [Compound 13l, 1-(4-(4-Cyclohexylphenoxy)butyl)piperazine·2HCl] | 49.9 ± 10.1 µM |
| CC(C)c1ccc(-c2ccc(OCCCCN3CCNCC3)cc2)cc1 [Compound 13i, 1-(4-(4′-Isopropylbiphenyl-4-yloxy)butyl)piperazine·2HCl] | 23.5 ± 0.1 µM |
| CC(C)c1cccc(-c2ccc(OCCCCN3CCNCC3)cc2)c1 [Compound 13j, 1-(4-(3′-Isopropylbiphenyl-4-yloxy)butyl)piperazine·2HCl] | 25.5 ± 8.9 µM |
| c1ccc(-c2ccccc2OCCCCN2CCNCC2)cc1 [Compound 13b, 1-(4-(Biphenyl-2-yloxy)butyl)piperazine·2HCl] | > 300 µM |
| NCCCOc1ccc(-c2ccccc2)cc1 [Compound 5c, 3-(Biphenyl-4-yloxy)propan-1-amine] | 147 ± 4 µM |
